Assay results from patent US20240174992A1, “SPLIT MODIFIED DEHALOGENASE VARIANTS” (Promega Corporation, priority 2022, published 2024).

Key:
HeLa cells [1] = assay: Live cell labeling kinetics of split HaloTag fragments fused to BRD4 and Histone H3, time-lapse imaging; assay type: cell-based; conditions: 100 nM JF646, BRD4-HaloTag[3-19] and H3.3-HaloTag[22-297](M2F)-EGFP
Protocol: FIG. 136. Timepoint imaging of complemented BRD4:Histone H3 complexes in live cells after addition of JF646 HaloTag ligand. […] Cells were immediately imaged after the ligand, 100 nM JF646, addition every 15 minutes for 1.5 hour. Imaging data were collected in the Far-red channel (Ex. 637 nm, top panel) and the green channel (Ex. 488 nm, bottom panel).
FIG. 137. Quantitation of live cell labeling kinetics of split HaloTag fragments fused to BRD4 and Histone H3 using time-lapse imaging. Cells were immediately imaged after the ligand addition every 10 minutes for 70 minutes. A Z-stack image was obtained at all time points to ensure all cells were captured in focus. The most focused Z levels were merged into one, and the intensity of all cells (6 total objects) was measured and averaged at all time points. The average of all cells' intensities present in the captured field of view were tracked in the far-red channel and the green channel over this period. […]
To measure the labeling rate, cells were immediately imaged after ligand addition every 10 minutes for 70 minutes (FIG. 137). […] The most focused Z levels were merged into one, and the intensity of all cells (6 total objects) was measured and averaged at all time points. […]

[2] = molecular target: T1, Calmodulin:M13 interaction (Homo sapiens, UniProt P0DP23); assay: Calmodulin:M13 interaction with split HaloTag, plate assay in live HeLa cells; assay type: cell-based
T1 construct: HaloTag[3-19]; expressed in transfected cells; host or cells: HeLa cells
Protocol: FIG. 140. Use of split HaloTag in detecting the interaction between Calmodulin and M13 peptide induced by the Calcium ions in live mammalian cells. […] The fluorescence activity was measured at indicated time points. For each construct, four technical replicates were tested. The bar for each construct is the mean of the four replicates, and the error bar represents the standard deviations.
FIG. 141. The fold response of split HaloTag in detecting the interaction between Calmodulin and M13 peptide induced by the Calcium ions in live mammalian cells. The fold response of each assay condition was calculated as the ratio of fluorescence signal for +Calcium chloride divided by −Calcium chloride treated cells (B). For each construct, four technical replicates have been tested. The bar for each construct is the mean of the four replicates, and the error bar represents the standard deviations.

[3] = molecular target: T1, Calmodulin:M13 interaction; assay: Calmodulin:M13 interaction with split HaloTag, live cell imaging in HeLa cells; assay type: cell-based
Protocol: FIG. 142. Live cell imaging of split HaloTag function in detecting the interaction between Calmodulin protein with the M13 peptide induced upon the addition of Ca ions in live mammalian cells. […] Prior to imaging by confocal microscopy, cells were labeled with 100 nM JF646 HaloTag ligand for 30 minutes at 37° C. The imaging data were collected in the far-red channel (Ex. 637 nm) and the green channel (Ex. 488 nm).
FIG. 143. Background measurement of HaloTag[22-297](M2F) fused to M13 peptide in live mammalian cells at lower laser intensity To measure the background originating from labeling the HaloTag [22-297](M2F) fragment, cells were transfected with just the M13-HaloTag[22-297](M2F)-EGFP plasmid and imaged using the same microscope settings. The Imaging data were collected in the far-red channel (Ex. 637 nm) and the green channel (Ex. 488 nm).
FIG. 144. Quantitation of live cell imaging of split HaloTag function in detecting the Calmodulin and M13 peptide interaction in live mammalian cells. Comparison of the fluorescent intensity of all imaged cells across several fields of view in the presence or absence of Calcium chloride (6 mM) conditions compared against the background fluorescent intensity of the labeled non-complemented HaloTag[22-297](M2F) fragment alone. Each dot represents the intensity of an imaged cell. CellProfiler software is used for this analysis.

HeLa cells [4] = assay: Split HaloTag FRB/FKBP plate-based fluorescent assay in live HeLa cells; assay type: cell-based; conditions: for performance of small HaloTag fragment: live HeLa cells, 500 nM Rapamycin, 50 nM JF646
Protocol: FIG. 27A-B. Activity of split HaloTag combinations in live mammalian cells. HeLa cells transiently transfected with plasmids expressing the large HaloTag fragments fused to FRB and small HaloTag fragments fused to FKBP were incubated for 2 hours with 500 nM Rapamycin, followed by labeling with 50 nM JF646 HaloTag ligand prior to detection of fluorescence at indicated timepoints. FIG. 27A Fluorescence intensity of JF646 HaloTag ligand in live cell assays over time comparing cells treated or untreated with Rapamycin. FIG. 27B Fold response of each assay condition was calculated as the ratio of fluorescence signal for +Rapamycin/−Rapamycin treated cells.
(§1) FIG. 90. The activity of different small HaloTag fragments in live mammalian cells. HeLa cells transiently transfected with plasmids expressing the large HaloTag fragment fused to FRB and small HaloTag fragments fused to FKBP were incubated for 2 hours with 500 nM Rapamycin, followed by labeling with 50 nM JF646 HaloTag ligand prior to detection of fluorescence activity at indicated time points. Fluorescence intensity of JF646 HaloTag ligand in live cell assays over time comparing cells treated or untreated with Rapamycin.
(§2) FIG. 91. Fold response of different small HaloTag fragments in live mammalian cells. HeLa cells transiently transfected with plasmids expressing the large HaloTag fragment fused to FRB and small HaloTag fragments fused to FKBP were incubated for 2 hours with 500 nM Rapamycin, followed by labeling with 50 nM JF646 HaloTag ligand prior to detection of fluorescence activity at indicated time points. The fold response of each assay condition was calculated as the ratio of fluorescence signal for +Rapamycin/−Rapamycin treated cells.
as §1, with “93. Activity comparison” for “90. The activity”, “HaloTag[22-297] variants in a protein complementation assay” for “different small HaloTag fragments”
as §2, with “94. […]” for “91. Fold response of different small HaloTag fragments in live mammalian cells.”, “+Rapamycin/− Rapamycin” for “+Rapamycin/−Rapamycin”, “cells. […]” for “cells.”

[5] = Complementation of N-terminal split HaloTag constructs in E. coli lysates, Janelia Fluor ligand fluorescence; assay type: biochemical; conditions: FKBP fusion against HT(23-297)-FRB, 500 nM Rapamycin, JF646
Protocol: FIG. 21A-B. Comparison of complementation activity of N-terminal split HaloTag constructs. Each HaloTag fragment was expressed separately in E. coli and then combined after lysis. The smaller N-terminal HaloTag fragments as FKBP fusions were tested against the larger fragments of FIG. 21A HT(23-297)-FRB or FIG. 21B HT(22-297)-FRB. To each reaction, 500 nM Rapamycin was added and incubated at room temperature for 2.5 hours prior to addition of 50 nM JF646 ligand and measurement of fluorescence at the indicated timepoint.
FIG. 22. Comparison of truncations of N-terminal split HaloTag constructs. Each HaloTag fragment was expressed separately in E. coli and then combined after lysis. […] To each reaction, 500 nM Rapamycin was added and incubated at room temperature for 2 hours prior to addition of 50 nM JF646 ligand and measurement of fluorescence at the indicated timepoint.
FIG. 25A-B. Mutations in N-terminal split HaloTag fragments improve fluorescence intensity and fold response. […] To each reaction, 500 nM Rapamycin was added and incubated at room temperature for 2 hours prior to addition of 50 nM JF646 ligand and measurement of fluorescence at the indicated timepoint. FIG. 25A Fluorescence intensity is shown for +Rapamycin condition to show the overall system brightness relative to FIG. 25B Fold response following Rapamycin addition. […]

## C[Si]1(C)c2cc(N3CCC3)ccc2C2(OC(=O)c3ccc(C(=O)NCCOCCOCCCCCCCl)cc32)c2ccc(N3CCC3)cc21 [JF646]
HeLa cells [1]
  time for far-red channel signal to reach its maximum: about 40 minutes

## [Ca+2].[Cl-].[Cl-] [calcium, Calcium chloride]
[2]
  change in fluorescence of split HaloTag fused to Calmodulin and M13 peptide: modest, calcium-dependent increase in fluorescence
[3]; 6 mM Calcium chloride, microscopy
  change in fluorescence from split HaloTag complementation: significant increase in fluorescence
[3]; across all cell images, Calcium chloride 6 mM
  increase in median fluorescence: 7 ×

## HT(4-19): small HaloTag fragment, residues 4-19, FKBP fusion
HeLa cells [4]
  performance of small HaloTag fragment: good fluorescence intensities and high fold responses

## HT(8-19): truncated small N-terminal HaloTag fragment, residues 8-19, FKBP fusion
[5]
  complementation activity of truncated small fragment: Complementation activity was demonstrated

## HaloTag[1-30]: small HaloTag fragment, residues 1-30, FKBP fusion
HeLa cells [4]
  performance of small HaloTag fragment: best SmHT in this assay
HeLa cells [4]; no Rapamycin
  background complementation: higher background (no Rapamycin) complementation

## HaloTag[3-19]: small HaloTag fragment, residues 3-19 of the HALOTAG sequence; used as fusion or synthetic peptide (EIGTGFPFDPHYVEVLG)
HeLa cells [4]
  performance of small HaloTag fragment: good fluorescence intensities and high fold responses
